Results: patent US20150250176A1, “METHOD FOR ENHANCING TOLERANCE TO ABIOTIC STRESS IN PLANTS USING CARBOXAMIDE OR THIOCARBOXAMIDE DERIVATIVES” (BAYER CROPSCIENCE AG, priority 2012, published 2015)

How the values were obtained:
[1] = logP determination by HPLC on a reversed-phase column (EEC Directive 79/831 Annex V.A8); settings: reversed-phase C18 HPLC column
Description: Temperature: 40° C.; Mobile phases: 0.1% aqueous formic acid and acetonitrile; linear gradient from 10% acetonitrile to 90% acetonitrile.
Calibration was carried out using unbranched alkan-2-ones (comprising 3 to 16 carbon atoms) with known logP values (determination of the logP values by the retention times using linear interpolation between two successive alkanones). lambda-max-values were determined using UV-spectra from 200 nm to 400 nm and the peak values of the chromatographic signals.

[2] = system: BRSNS (Brassica napus); test: Drought stress test on crop plants, spray application, BRSNS; type: in vivo; settings: mean of 2 or more experiments
Description: (§1) Seeds of monocotyledonous and dicotyledonous crop plants were placed in sandy loam in wood-fiber pots, covered with soil and cultivated in a greenhouse under good growth conditions. The test plants were treated at the early leaf stage (BBCH10-BBCH13). To ensure uniform water supply before commencement of stress, the potted plants were supplied with the maximum amount of water immediately beforehand by dam irrigation.
(§2) The inventive compounds, formulated in the form of wettable powders (WP) were sprayed onto the green parts of the plants as an aqueous suspension at an equivalent water application rate of 600 l/ha with addition of 0.2% wetting agent (agrotin). Substance application was followed immediately by stress treatment of the plants, for which the pots were transferred in plastic inserts in order to prevent subsequent, excessively rapid drying.
(§3) Drought stress was induced by gradual drying out under the following conditions: • “day”: 14 hours with illumination at ˜26° C. • “night”: 10 hours without illumination at ˜18° C.
(§4) The duration of the respective stress phases was guided mainly by the state of the untreated, stressed control plants and thus varies from crop to crop. It was ended (by re-irrigating or transfer to a greenhouse with good growth conditions) as soon as irreversible damage is observed on the untreated, stressed control plants. In the case of dicotyledonous crops, for example oilseed rape and soya, the duration of the drought stress phase was between 3 and 6 days, in the case of monocotyledonous crops, for example wheat, barley or corn, between 6 and 11 days.
(§5) The end of the stress phase was followed by an approx. 5-7-day recovery phase, during which the plants were once again kept under good growth conditions in a greenhouse. In order to rule out any influence of the effects observed by any fungicidal action of the test compounds, it was additionally ensured that the tests proceed without fungal infection and without infection pressure.
(§6) After the recovery phase had ended, the intensities of damage were rated visually compared to untreated, unstressed controls of the same age (in the case of drought stress) or the same growth stage (in the case of cold stress). The intensity of damage was first assessed as a percentage (100% =plants have died, 0% =like control plants). These values were then used to calculate the efficacy of the test compounds (=percentage reduction in the intensity of damage as a result of substance application) by the following formula:
(§7) [formula] • EF: efficacy (%) • DVus: damage value of the untreated, stressed control • […] with test compound
(§8) The tables below list mean values in each case from 2 or more independent experiments.
(§9) Tables A.1 to A.3 show, by way of example, the efficacies of compound of formula (I) as herein defined under drought stress and in conjunction with application to different crop plants, i.e. in table A.1 on application to BRSNS (Brassica napus), in table A.2 on application to TRZAS (Triticum aestivum) and in table A.3 on application to ZEAMX (Zea mays): […]

[3] = system: TRZAS (Triticum aestivum); test: Drought stress test on crop plants, spray application, TRZAS; type: in vivo; settings: for percent reduction in drought damage at 25 g/ha / percent reduction in drought damage at 250 g/ha / pest or weed control at 25 g/ha / pest or weed control at 250 g/ha: read-out: EF (TRZAS), efficacy = percentage reduction in the intensity of damage; for pest or weed control at 25 g/ha: dosage 25 g/ha
Description: as §1, §2, §3, §4, §5, §6, §7, §8, §9

[4] = system: ZEAMX (Zea mays); test: Drought stress test on crop plants, spray application, ZEAMX; type: in vivo; settings: dosage 250 g/ha, mean of 2 or more experiments
Description: as §1, §2
Drought stress was induced by gradual drying out under the following conditions: • “day”: 14 hours with illumination at ˜26° C. • “night”: 10 hours without illumination at ˜18° C. […]
After the recovery phase had ended, the intensities of damage were rated visually compared to untreated, unstressed controls of the same age (in the case of drought stress) or the same growth stage (in the case of cold stress). The intensity of damage was first assessed as a percentage (100% =plants have died, 0% =like control plants). […]

[5] = drought stress, spray, mean of 2 or more experiments
[6] = drought stress, dosage 250 g/ha, spray, mean of 2 or more experiments

CC(C)c1ccccc1CN(C(=O)c1c(C(F)F)nn(C)c1F)C1CC1 [Compound A1, N-cyclopropyl-3-(difluoromethyl)-5-fluoro-N-(2-isopropylbenzyl)-1-methyl-1H-pyrazole-4-carboxamide]
chromatographic logP [1]: 3.35

Cn1nc(C(F)F)c(C(=O)N(Cc2ccccc2C2CC2)C2CC2)c1F [Compound A2, N-cyclopropyl-N-(2-cyclopropylbenzyl)-3-(difluoromethyl)-5-fluoro-1-methyl-1H-pyrazole-4-carboxamide]
EF (BRSNS), efficacy = percentage reduction in the intensity of damage ([2]; dosage 2.5 g/ha): >5%
EF (BRSNS), efficacy = percentage reduction in the intensity of damage ([2]; dosage 25 g/ha): >5%
EF (BRSNS), efficacy = percentage reduction in the intensity of damage ([2]; dosage 250 g/ha): >5%
chromatographic logP [1]: 3.44

Cn1nc(C(F)F)c(C(=O)N(Cc2ccccc2C(C)(C)C)C2CC2)c1F [Compound A3, N-(2-tert-butylbenzyl)-N-cyclopropyl-3-(difluoromethyl)-5-fluoro-1-methyl-1H-pyrazole-4-carboxamide]
percent reduction in drought damage at 25 g/ha [3]: > 5%
percent reduction in drought damage at 250 g/ha [3]: > 5%
chromatographic logP [1]: 4.06

CCc1ccc(Cl)cc1CN(C(=O)c1c(C(F)F)nn(C)c1F)C1CC1 [Compound A4, N-(5-chloro-2-ethylbenzyl)-N-cyclopropyl-3-(difluoromethyl)-5-fluoro-1-methyl-1H-pyrazole-4-carboxamide]
percent reduction in drought damage at 25 g/ha [3]: > 5%
chromatographic logP [1]: 3.76

CC(C)c1ccc(Cl)cc1CN(C(=O)c1c(C(F)F)nn(C)c1F)C1CC1 [Compound A5, N-(5-chloro-2-isopropylbenzyl)-N-cyclopropyl-3-(difluoromethyl)-5-fluoro-1-methyl-1H-pyrazole-4-carboxamide]
pest or weed control at 25 g/ha [3, 5]: > 5%
pest or weed control at 250 g/ha [3, 6]: > 5%
EF (BRSNS), efficacy = percentage reduction in the intensity of damage ([2]; dosage 25 g/ha): >5%
chromatographic logP [1]: 4.09

CCc1ccc(F)cc1CN(C(=O)c1c(C(F)F)nn(C)c1F)C1CC1 [Compound A6, N-cyclopropyl-3-(difluoromethyl)-N-(2-ethyl-5-fluorobenzyl)-5-fluoro-1-methyl-1H-pyrazole-4-carboxamide]
pest or weed control at 25 g/ha [3, 5]: > 5%
pest or weed control at 250 g/ha [3, 6]: > 5%
EF (BRSNS), efficacy = percentage reduction in the intensity of damage ([2]; dosage 25 g/ha): >5%
chromatographic logP [1]: 3.41

CC(C)c1ccc(F)cc1CN(C(=O)c1c(C(F)F)nn(C)c1F)C1CC1 [Compound A7, N-cyclopropyl-3-(difluoromethyl)-5-fluoro-N-(5-fluoro-2-isopropylbenzyl)-1-methyl-1H-pyrazole-4-carboxamide]
EF (BRSNS), efficacy = percentage reduction in the intensity of damage ([2]; dosage 250 g/ha): >5%
chromatographic logP [1]: 3.7

Cn1nc(C(F)F)c(C(=O)N(Cc2cc(F)ccc2C2CC2)C2CC2)c1F [Compound A8, N-cyclopropyl-N-(2-cyclopropyl-5-fluorobenzyl)-3-(difluoromethyl)-5-fluoro-1-methyl-1H-pyrazole-4-carboxamide]
EF (ZEAMX), efficacy = percentage reduction in the intensity of damage [4]: >5%
EF (BRSNS), efficacy = percentage reduction in the intensity of damage ([2]; dosage 2.5 g/ha): >5%
chromatographic logP [1]: 3.46

Cn1nc(C(F)F)c(C(=O)N(Cc2cc(F)ccc2C2CCCC2)C2CC2)c1F [Compound A9, N-(2-cyclopentyl-5-fluorobenzyl)-N-cyclopropyl-3-(difluoromethyl)-5-fluoro-1-methyl-1H-pyrazole-4-carboxamide]
chromatographic logP [1]: 4.21

CC(C)c1cccc(F)c1CN(C(=O)c1c(C(F)F)nn(C)c1F)C1CC1 [Compound A10, N-cyclopropyl-3-(difluoromethyl)-5-fluoro-N-(2-fluoro-6-isopropylbenzyl)-1-methyl-1H-pyrazole-4-carboxamide]
chromatographic logP [1]: 3.65

CCc1ccc(C)cc1CN(C(=O)c1c(C(F)F)nn(C)c1F)C1CC1 [Compound A11, N-cyclopropyl-3-(difluoromethyl)-N-(2-ethyl-5-methylbenzyl)-5-fluoro-1-methyl-1H-pyrazole-4-carboxamide]
pest or weed control at 25 g/ha [3, 5]: > 5%
chromatographic logP [1]: 3.7

Cc1ccc(C(C)C)c(CN(C(=O)c2c(C(F)F)nn(C)c2F)C2CC2)c1 [Compound A12, N-cyclopropyl-3-(difluoromethyl)-5-fluoro-N-(2-isopropyl-5-methylbenzyl)-1-methyl-1H-pyrazole-4-carboxamide]
EF (BRSNS), efficacy = percentage reduction in the intensity of damage ([2]; dosage 2.5 g/ha): >5%
EF (BRSNS), efficacy = percentage reduction in the intensity of damage ([2]; dosage 25 g/ha): >5%
EF (BRSNS), efficacy = percentage reduction in the intensity of damage ([2]; dosage 250 g/ha): >5%
chromatographic logP [1]: 3.99

Cc1ccc(C2CC2)c(CN(C(=O)c2c(C(F)F)nn(C)c2F)C2CC2)c1 [Compound A13, N-cyclopropyl-N-(2-cyclopropyl-5-methylbenzyl)-3-(difluoromethyl)-5-fluoro-1-methyl-1H-pyrazole-4-carboxamide]
chromatographic logP [1]: 3.76

Cc1ccc(C(C)(C)C)c(CN(C(=O)c2c(C(F)F)nn(C)c2F)C2CC2)c1 [Compound A14, N-(2-tert-butyl-5-methylbenzyl)-N-cyclopropyl-3-(difluoromethyl)-5-fluoro-1-methyl-1H-pyrazole-4-carboxamide]
percent reduction in drought damage at 250 g/ha [3]: > 5%
chromatographic logP [1]: 4.36

Cn1nc(C(F)F)c(C(=O)N(Cc2cc(Cl)ccc2C(F)(F)F)C2CC2)c1F [Compound A15, N-[5-chloro-2-(trifluoromethyl)benzyl]-N-cyclopropyl-3-(difluoromethyl)-5-fluoro-1-methyl-1H-pyrazole-4-carboxamide]
chromatographic logP [1]: 3.8

Cc1ccc(C(F)(F)F)c(CN(C(=O)c2c(C(F)F)nn(C)c2F)C2CC2)c1 [Compound A16, N-cyclopropyl-3-(difluoromethyl)-5-fluoro-1-methyl-N-[5-methyl-2-(trifluoromethyl)benzyl]-1H-pyrazole-4-carboxamide]
percent reduction in drought damage at 250 g/ha [3]: > 5%
chromatographic logP [1]: 3.78

Cn1nc(C(F)F)c(C(=O)N(Cc2c(Cl)cccc2C(F)(F)F)C2CC2)c1F [Compound A17, N-[2-chloro-6-(trifluoromethyl)benzyl]-N-cyclopropyl-3-(difluoromethyl)-5-fluoro-1-methyl-1H-pyrazole-4-carboxamide]
chromatographic logP [1]: 3.46

Cn1nc(C(F)F)c(C(=O)N(Cc2c(C(F)(F)F)ccc(Cl)c2F)C2CC2)c1F [Compound A18, N-[3-chloro-2-fluoro-6-(trifluoromethyl)benzyl]-N-cyclopropyl-3-(difluoromethyl)-5-fluoro-1-methyl-1H-pyrazole-4-carboxamide]
chromatographic logP [1]: 3.62

CCc1cc(C)c(C)cc1CN(C(=O)c1c(C(F)F)nn(C)c1F)C1CC1 [Compound A19, N-cyclopropyl-3-(difluoromethyl)-N-(2-ethyl-4,5-dimethylbenzyl)-5-fluoro-1-methyl-1H-pyrazole-4-carboxamide]
pest or weed control at 25 g/ha [3, 5]: > 5%
EF (BRSNS), efficacy = percentage reduction in the intensity of damage ([2]; dosage 25 g/ha): >5%
chromatographic logP [1]: 4.04

N-cyclopropyl-3-(difluoromethyl)-5-fluoro-N-(2-isopropylbenzyl)-1-methyl-1H-pyrazole-4-carbothio-amide [Compound A20]
EF (TRZAS), efficacy = percentage reduction in the intensity of damage [3, 6]: >5%
